Literature values in US10231947B2, “Isochroman compounds and methods of use thereof” (ARIZONA BOARD OF REGENTS ON BEHALF OF ARIZONA STATE …, priority 2017, dated 2019).

Experiments:
[1] = tested on: hRXR; settings: Caco-2 cells
[2] = molecular target: hRXR; settings: Caco-2 cells; remark: listed apart in the source
[3] = molecular target: hRXRβ (Homo sapiens, UniProt P28702); settings: read-out: EC50 for the hRXRβ isoform
Chain of hRXRβ (P28702 whole entry, canonical isoform): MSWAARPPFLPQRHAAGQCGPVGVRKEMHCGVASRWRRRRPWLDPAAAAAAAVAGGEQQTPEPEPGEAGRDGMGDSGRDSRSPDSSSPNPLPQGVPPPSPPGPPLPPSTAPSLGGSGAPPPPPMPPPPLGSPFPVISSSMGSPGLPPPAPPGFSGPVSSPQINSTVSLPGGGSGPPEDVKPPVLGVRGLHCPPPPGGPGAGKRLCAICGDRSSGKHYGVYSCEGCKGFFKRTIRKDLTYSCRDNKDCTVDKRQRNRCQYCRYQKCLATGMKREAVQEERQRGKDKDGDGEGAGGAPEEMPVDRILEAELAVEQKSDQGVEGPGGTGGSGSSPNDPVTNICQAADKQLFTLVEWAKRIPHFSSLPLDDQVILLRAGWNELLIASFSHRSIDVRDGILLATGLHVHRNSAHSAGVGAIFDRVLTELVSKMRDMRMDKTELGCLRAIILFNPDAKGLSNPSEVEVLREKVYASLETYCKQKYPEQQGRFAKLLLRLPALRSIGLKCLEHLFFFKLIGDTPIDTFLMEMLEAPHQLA

Compound: C=C(c1ccc(C(=O)O)c(F)c1)c1cc2c(cc1C)C(C)(C)CCC2(C)C [compound 3]
- EC50 [1]: 43 nM
- Kd [2]: 12 nM

Compound: Cc1cc2c(cc1-c1cc(/C=C/C(=O)O)ccc1O)C(C)(C)CCC2(C)C [CD3254]
- EC50 [3]: ~10 nM
